How the values were obtained:
[1] = refractive index (Na D-line) (dimensionless); conditions: 298 K; 101.33 kPa; Liquid; Standard Abbe refractometry
[2] = mn = molality of the nth substance listed, in mol/kg; conditions: 298 K, 100 kPa, Liquid, Frequency=0.001 MHz, Alternating current cell with electrodes
[3] = refractive index (Na D-line) (dimensionless); mn = molality of the nth substance listed, in mol/kg; conditions: 298 K, 100 kPa, Liquid, Standard Abbe refractometry
[4] = 298 K; 100 kPa; Liquid; Frequency=0.001 MHz; Alternating current cell with electrodes

CCO [ethanol]
Conditions	refractive index
[1]	1.36

CCCO [propan-1-ol] + O
Conditions	electrical conductivity, m1 = 0.87 [S/m]	electrical conductivity, m1 = 1.49 [S/m]	electrical conductivity, m1 = 2.76 [S/m]	electrical conductivity, m1 = 4.29 [S/m]	electrical conductivity, m1 = 6.77 [S/m]	refractive index, m1 = 0.87	refractive index, m1 = 1.49	refractive index, m1 = 2.76	refractive index, m1 = 4.29	refractive index, m1 = 6.77
[2]	0.000153	0.000145	0.000111	0.000117	0.000143	–	–	–	–	–
[3]	–	–	–	–	–	1.3381	1.3414	1.3465	1.3516	1.3572

CC(C)O [propan-2-ol] + O
Conditions	electrical conductivity, [2] [S/m]	refractive index, [3]
m1 = 0.85	0.000134	1.3374
m1 = 1.45	0.000141	1.3408
m1 = 2.84	8.2e-05	1.3467
m1 = 4.36	9.4e-05	1.3511
m1 = 8.72	5e-05	1.361
m1 = 13.08	4.7e-05	1.365

CCO [ethanol] + O
Conditions	electrical conductivity, [2] [S/m]	refractive index, [3]
m1 = 0.9	0.000248	1.3362
m1 = 1.46	0.000259	1.3375
m1 = 2.69	0.000287	1.34
m1 = 4.09	0.000311	1.3431
m1 = 7.59	0.000251	1.3497
m1 = 9.51	0.000252	1.3521

CC(C)O [propan-2-ol]
Conditions	refractive index
[1]	1.3758

CCCCCCCCCCCCOS(=O)(=O)[O-].[Na+] [sodium dodecyl sulfate] + O
[2]
Conditions	electrical conductivity [S/m]
m1 = 0.00099	0.00957
m1 = 0.00198	0.0183
m1 = 0.00297	0.0271
m1 = 0.00396	0.0357
m1 = 0.00495	0.0443
m1 = 0.00594	0.0528
m1 = 0.00693	0.061
m1 = 0.00792	0.0684
m1 = 0.00891	0.074
m1 = 0.0099	0.0777
m1 = 0.01089	0.0813
m1 = 0.01188	0.0846
m1 = 0.01287	0.0878
m1 = 0.01386	0.09108

O [water]
Conditions	electrical conductivity [S/m]	refractive index
[1]	–	1.3327
[4]	0.000502	–

CCCO [propan-1-ol]
Conditions	refractive index
[1]	1.3834

Source: the NIST ThermoML archive (doi:10.1021/acs.jced.8b00181)
